The text below walks through data of patent US10238642B2, “Methods for treating neurogenic orthostatic hypotension” (Theravance Biopharma R&D IP, LLC, priority 2016, dated 2019).

In data set [1] the test system is rat native NET. The experiment in a line: [3H]-NE uptake inhibition in rat cortical synaptosomes. In kind it is biochemical. An excerpt: (§1) The in vitro pharmacology of 4-[2-(2,4,6-trifluorophenoxymethyl)phenyl]-piperidine at human recombinant and rat native monoamine transporters was characterized as described in Smith et al., Inter. J. Neuropsychopharmcol. (2015) 1-11; and Tsuruda et al., J. Pharmacol. Toxicol. Meth. (2010) 61:192-204. See also, e.g., U.S. Pat. No. 8,304,432 B2 and U.S. Pat. No. 8,304,433 B2. Radioligands were sourced commercially (Perkin Elmer LifeSciences or GE Healthcare Life Sciences).
(§2) Briefly, membranes prepared from HEK293 (Human Embryonic Kidney 293) or CHO-K1 (Chinese Hamster Ovary-K1) cells stably transfected with human recombinant SERT (HEK293-hSERT), NET (HEK293-hNET), or DAT (CHO-KT-hDAT) were incubated for 1 hr at 22° C. in the absence, or presence, of 4-[2-(2,4,6-trifluorophenoxymethyl)phenyl]piperidine and [^3H]-citalopram (1.0 nM) for SERT, [^3H]-nisoxetine (2.0 nM) for NET, and [^3H]-WIN35428 (3.0 nM) for DAT in 50 mM Tris-HCl, 120 mM NaCl, 5 mM KCl, 0.025% BSA, 100 μM ascorbic acid, pH 7.4. Rat cortical membrane preparations were incubated with [^3H]-citalopram (2.0 nM) for SERT or [3H]-nisoxetine (4.0 nM) for NET for 1 hr at 22° C. […] Binding and uptake assays were terminated by rapid filtration and radioactivity determined by liquid scintillation spectroscopy.

The target in data set [2] is T1, CYP1A2 (Homo sapiens, UniProt P05177).
T1 sequence (P05177 1-516): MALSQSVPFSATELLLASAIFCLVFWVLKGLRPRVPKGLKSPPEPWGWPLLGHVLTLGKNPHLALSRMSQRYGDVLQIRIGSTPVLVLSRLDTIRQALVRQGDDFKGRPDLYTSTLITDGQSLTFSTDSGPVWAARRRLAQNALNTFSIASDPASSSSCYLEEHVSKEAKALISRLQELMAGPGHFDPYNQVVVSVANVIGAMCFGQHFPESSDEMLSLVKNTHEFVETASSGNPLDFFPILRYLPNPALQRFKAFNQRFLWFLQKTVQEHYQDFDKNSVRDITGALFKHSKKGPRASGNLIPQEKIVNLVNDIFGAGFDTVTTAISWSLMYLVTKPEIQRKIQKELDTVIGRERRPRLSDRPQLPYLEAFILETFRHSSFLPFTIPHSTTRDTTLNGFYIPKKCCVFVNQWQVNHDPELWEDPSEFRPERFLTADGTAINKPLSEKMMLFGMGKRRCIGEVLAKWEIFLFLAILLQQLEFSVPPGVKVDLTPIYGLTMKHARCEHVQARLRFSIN
Particulars: cited from earlier work.

Data set [3] concerns the target CYP3A4 (Homo sapiens, UniProt P08684). The note with it: cited from earlier work.
A short description of data set [4]: Rat oral pharmacokinetics, one-compartment model. It is filed as in vivo. The note with it: estimate (% CV). The protocol: Adult male Sprague Dawley rats (Charles River) were housed under controlled laboratory conditions (temperature at 21±1° C.) on a 12:12 hour light-dark cycle. Animals were given free access to food and water upon arrival to the facility and animals were acclimatized to their holding room for at least 48 hours. Animals were fasted but allowed free access to water for 15-18 hours prior to dosing.
Rats (n=6/timepoint/dose level) received a single oral dose of 4-[2-(2,4,6-trifluorophenoxymethyl)phenyl]piperidine (0.3, 1, 5, 10, 30, and 60 mg/kg) and were euthanized by decapitation at specified time points (0.5, 2, 4, 6, and 8 hr for 5 mg/kg dose level; 2 hr for 0.3, 1, 10, 30, and 60 mg/kg dose levels) post-administration. Spinal cords were dissected for ex vivo transporter occupancy and PK assessments from the same animals. The spinal cord was harvested by hydraulic extrusion using phosphate-buffered saline, and the lumbar segment dissected and frozen on dry ice. The remaining spinal cord segments were collected and homogenized in water (25% w/w) for PK analysis. All samples were stored at −80° C. until analysis.
A kinetic radioligand binding assay was used to determine NET and SERT occupancy in rat spinal cord, as described previously in Bourdet et al., J. Pharm. Exp. Ther. (2012) 341:137-145. PK/PD parameters were estimated by a compartmental modeling approach (WinNonlin Version 5.0.1, Pharsight Corporation). One- and two-compartment PK models with first-order absorption and elimination were evaluated. The one-compartment model was selected. The pharmacodynamics model was an effect compartment Emax model linked directly to the central PK compartment (WinNonlin PK Model 3, PD Model 101). Selection of models was based upon best fit in terms of visual inspection, Akaike Information Criteria, and weighted residual sum of squares using the Gauss-Newton minimization method.

The target in data set [5] is T2, human recombinant NET (Homo sapiens, UniProt P23975).
T2 construct: expressed in transfected cells; host or cells: HEK293
T2 sequence (P23975 whole entry): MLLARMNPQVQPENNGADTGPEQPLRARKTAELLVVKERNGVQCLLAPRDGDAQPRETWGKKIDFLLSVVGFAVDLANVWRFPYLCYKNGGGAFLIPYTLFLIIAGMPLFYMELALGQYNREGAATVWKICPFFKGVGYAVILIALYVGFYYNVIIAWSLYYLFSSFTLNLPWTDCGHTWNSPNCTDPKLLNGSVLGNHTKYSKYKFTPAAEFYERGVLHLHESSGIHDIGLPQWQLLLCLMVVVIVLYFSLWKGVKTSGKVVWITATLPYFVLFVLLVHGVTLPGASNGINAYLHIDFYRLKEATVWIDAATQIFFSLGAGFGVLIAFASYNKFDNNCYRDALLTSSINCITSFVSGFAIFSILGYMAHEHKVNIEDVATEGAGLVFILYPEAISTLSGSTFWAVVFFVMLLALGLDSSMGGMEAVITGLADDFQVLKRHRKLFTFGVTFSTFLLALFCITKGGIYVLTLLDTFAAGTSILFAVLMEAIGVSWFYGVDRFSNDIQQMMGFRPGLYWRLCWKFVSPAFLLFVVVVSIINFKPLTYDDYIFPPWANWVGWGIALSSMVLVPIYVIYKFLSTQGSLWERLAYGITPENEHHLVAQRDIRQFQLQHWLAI
The experiment in a line: [3H]-NE neurotransmitter uptake inhibition in HEK293-hNET cells. In kind it is cell-based. Particulars: human transporters.
Source text: as §1, §2

The target of data set [6] is CYP2D6 (Homo sapiens, UniProt P10635). Particulars: cited from earlier work.
CYP2D6, sequence (P10635 whole entry): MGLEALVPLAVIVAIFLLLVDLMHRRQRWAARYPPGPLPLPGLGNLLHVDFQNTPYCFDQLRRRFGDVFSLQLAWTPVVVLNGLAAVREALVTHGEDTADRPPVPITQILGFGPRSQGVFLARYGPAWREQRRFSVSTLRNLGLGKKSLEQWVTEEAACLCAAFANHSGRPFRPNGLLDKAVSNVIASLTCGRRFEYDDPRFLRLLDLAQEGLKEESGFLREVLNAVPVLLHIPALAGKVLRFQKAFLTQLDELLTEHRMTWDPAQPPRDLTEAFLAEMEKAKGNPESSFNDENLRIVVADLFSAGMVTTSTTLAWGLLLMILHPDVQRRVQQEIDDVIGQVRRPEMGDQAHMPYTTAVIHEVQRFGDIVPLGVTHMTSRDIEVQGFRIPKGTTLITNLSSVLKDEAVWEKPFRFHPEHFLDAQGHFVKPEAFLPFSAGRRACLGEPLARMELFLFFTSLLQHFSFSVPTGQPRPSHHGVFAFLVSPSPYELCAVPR
Data set [7] in a line: Plasma protein binding, human. In kind it is in vitro ADME.
Data set [8] addresses T3, rat native NET (Rattus norvegicus, UniProt Q9WTR4).
T3 construct: other: Rat cortical membranes; mean (95% confidence intervals)
As to the kind of experiment: [3H]-nisoxetine radioligand binding, rat cortical membranes. Particulars: mean (95% confidence intervals), read-out: Transporter Binding: pKi, NET (converted).
Source text: as §1, §2

Data set [9] is described as follows: Plasma protein binding, rat. It is filed as in vitro ADME.
The test system of data set [10] is tyramine pressor response. The experiment in a line: Cardiovascular model in anesthetized rat: inhibition of tyramine pressor response. It is filed as in vivo. The note with it: iv, read-out: estimated potency for inhibition of tyramine-induced increase in SBP (Tyr EC50).

T3 sequence (Q9WTR4 1-597): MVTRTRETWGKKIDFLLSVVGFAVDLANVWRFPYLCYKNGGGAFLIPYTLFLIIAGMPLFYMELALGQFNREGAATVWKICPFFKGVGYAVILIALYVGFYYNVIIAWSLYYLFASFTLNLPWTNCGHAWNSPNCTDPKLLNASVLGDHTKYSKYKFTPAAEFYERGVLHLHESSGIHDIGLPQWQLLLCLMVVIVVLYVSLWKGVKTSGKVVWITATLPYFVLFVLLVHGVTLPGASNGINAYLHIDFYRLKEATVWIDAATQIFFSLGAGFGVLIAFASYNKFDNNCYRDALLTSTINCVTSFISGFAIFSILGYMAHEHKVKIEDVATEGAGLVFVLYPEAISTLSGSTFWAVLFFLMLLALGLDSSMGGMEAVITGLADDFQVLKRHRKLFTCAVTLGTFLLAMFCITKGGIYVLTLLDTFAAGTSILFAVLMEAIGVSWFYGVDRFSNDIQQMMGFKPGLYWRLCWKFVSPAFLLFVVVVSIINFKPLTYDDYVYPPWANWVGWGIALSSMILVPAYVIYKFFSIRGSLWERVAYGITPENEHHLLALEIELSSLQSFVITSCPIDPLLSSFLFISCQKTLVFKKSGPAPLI
CYP3A4, sequence (P08684 whole entry): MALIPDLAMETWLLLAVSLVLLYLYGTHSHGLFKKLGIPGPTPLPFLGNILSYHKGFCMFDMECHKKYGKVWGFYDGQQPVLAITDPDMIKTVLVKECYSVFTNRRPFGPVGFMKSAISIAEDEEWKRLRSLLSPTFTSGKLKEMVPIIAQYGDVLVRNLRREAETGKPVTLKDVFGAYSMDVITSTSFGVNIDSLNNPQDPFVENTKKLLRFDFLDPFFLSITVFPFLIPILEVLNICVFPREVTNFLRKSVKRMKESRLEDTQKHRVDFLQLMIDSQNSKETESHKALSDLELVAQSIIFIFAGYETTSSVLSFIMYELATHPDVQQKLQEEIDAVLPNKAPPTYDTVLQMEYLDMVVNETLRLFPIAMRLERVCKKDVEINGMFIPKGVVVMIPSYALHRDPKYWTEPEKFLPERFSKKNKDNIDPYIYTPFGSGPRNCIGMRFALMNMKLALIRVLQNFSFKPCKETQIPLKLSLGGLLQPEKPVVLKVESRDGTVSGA

Broadly, the fraction unbound is free concentration divided by total concentration. Low readings indicate extensive binding, high ones weak binding. Broadly, the EC50 is the midpoint of the concentration-response curve. Consider `Fc1cc(F)c(OCc2ccccc2C2CCNCC2)c(F)c1` [4-[2-(2,4,6-trifluorophenoxymethyl)phenyl]piperidine], for which the “apparent functional selectivity for NET over SERT” value in data set [1] came to 10 fold. In addition, in data set [2], the “reduction of metabolism by chemical inhibition of CYP1A2” value was 25%. Besides, the “reduction of metabolism by chemical inhibition of CYP3A4” value in [3] is given as 34%. In addition, in [4], the “V/F (volume of the central compartment divided by oral bioavailability)” value is listed as 54.8 (66) L/kg, the “k01 (first-order absorption rate constant)” value was 0.777 (108) hr^−1 and the “k10 (elimination rate constant from the central compartment)” value is recorded as 0.319 (81) hr^−1. Also, the “higher potency for inhibition of NET over SERT” value in [5] stood at 4 fold. Moreover, in data set [6], the “reduction of metabolism by chemical inhibition of CYP2D6” value is on record as 7%. The compound also had a fraction unbound in data set [7] of 0.209. Also, the Ki in data set [8] was 2 nM. This compound also gave a fraction unbound in data set [9] of 0.098. Moreover, the EC50 in [10] was 0.86 nM.
